The text below walks through data of patent US12502355B2, “Solid pharmaceutical formulations of 6-(2-chloro-6-methylpyridin-4-yl)-5-(4-fluorophenyl)-1,2,4-triazin-3-amine” (AstraZeneca AB, priority 2019, dated 2025).

In brackets after ≈: the same amount, converted by molar mass.

Common to all, as to type: physicochemical
Data set [1] is described as follows: physchem.
The next data set can be described thus: log P of Compound 1.
Data set [2] can be described thus: physchem. The source holds these as a separate data set.
Data set [3] in a line: Solubility screens for formulation strategies (lipidic, mesoporous silica, spray drying). An excerpt: The inventors investigated multiple strategies to make an effective solid formulation, including: • Conventional immediate release tablets. […] Screen of co-crystal former molecules was unsuccessful in identifying a suitable co-crystal form. • Lipid formulation: Compound 1 is a neutral molecule, and not lipophilic.

With `Cc1cc(-c2nnc(N)nc2-c2ccc(F)cc2)cc(Cl)n1` [Compound 1, 6-(2-chloro-6-methylpyridin-4-yl)-5-(4-fluorophenyl)-1,2,4-triazin-3-amine], the solubility in “physchem [1]” (fassif) was 5.8 µg/mL (≈ 18.4 µM); in the data set “physchem [1]” (pH 1.2, simulated gastric fluid) it was 29.8 µg/mL (≈ 94.4 µM); in “physchem [1]” (pH 7, aqueous buffer), less than 5 µg/mL. Moreover, the logP in “log P of Compound 1” turned out to be 2.8. This molecule showed a pKa in the data set “physchem [2]” of 1.78. The “solubility in solvents suitable for spray drying” value in data set [3] is “limited solubility”. In data set [3], the “solubility in suitable solvent for mesoporous silica formulation” value was “inadequate”. Also, the “solubility in suitable excipients for a lipidic formulation” value in data set [3] (lipidic screen) is recorded as “did not show significant solubility”.

For orientation: solubility means the concentration that dissolves in the medium under given conditions. Low readings indicate little dissolved substance, high ones much dissolved substance. What is called logP is the decadic logarithm of the partition coefficient of the neutral form, usually between octanol and water. By pKa is commonly meant the pH at which an ionisable group is half protonated.
